The target of one experiment is T1, TAK1 (Homo sapiens, UniProt O43318).
T1 construct: expressed in transfected cells; host or cells: HEK293T
T1 sequence (O43318 1-579 isoform O43318-2): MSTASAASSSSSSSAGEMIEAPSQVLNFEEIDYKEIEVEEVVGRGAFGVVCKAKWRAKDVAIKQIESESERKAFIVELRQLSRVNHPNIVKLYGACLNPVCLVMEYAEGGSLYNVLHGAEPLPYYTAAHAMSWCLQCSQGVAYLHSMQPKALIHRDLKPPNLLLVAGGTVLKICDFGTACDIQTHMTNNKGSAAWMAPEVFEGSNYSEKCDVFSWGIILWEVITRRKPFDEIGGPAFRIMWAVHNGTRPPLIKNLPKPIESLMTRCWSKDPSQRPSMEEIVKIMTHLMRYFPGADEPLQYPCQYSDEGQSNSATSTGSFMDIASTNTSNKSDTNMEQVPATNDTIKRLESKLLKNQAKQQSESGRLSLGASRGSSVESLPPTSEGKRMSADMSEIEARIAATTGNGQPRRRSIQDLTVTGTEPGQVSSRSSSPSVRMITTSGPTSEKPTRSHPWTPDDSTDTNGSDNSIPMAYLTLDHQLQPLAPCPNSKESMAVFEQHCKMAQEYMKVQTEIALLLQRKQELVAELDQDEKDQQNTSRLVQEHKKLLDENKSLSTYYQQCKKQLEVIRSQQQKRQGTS
The experiment in a line: Streptavidin agarose pull-down with biotin-tagged probe CB12. In kind it is binding. The following applies: lysates of HEK293T transfected with TAK1; RA-V in 10-fold excess.

Experiment [1] has as its system p65 phosphorylation, IκBα phosphorylation and IκBα degradation. The experiment in a line: Western blot of TNF-α-induced NF-κB-associated proteins. The format is cell-based. Particulars: HEK293T or HeLa; RA-V 24 h, 10 ng/mL TNF-α 10 min. The protocol: Fig. 1 RA-V inhibits TNF-α- and LPS-induced activation of NF-κB. a Chemical structure of RA-V. b RA-V inhibited the NF-κB signaling pathway in a dose-dependent manner. HEK293T or HeLa cells were transfected with the 5 × κB-luciferase and pTK-Renilla reporters. Twenty-four hours after transfection, the cells were incubated with various concentrations of RA-V for 6 h, and then treated with 10 ng/mL TNF-α for 2 h before the luciferase activity assay and MTT assay. c RA-V reduced TNF-α-induced expression of NF-κB target genes. HEK293T or HeLa cells were treated with various concentrations of RA-V for 24 h and stimulated with 10 ng/mL TNF-α for 2 h. The expression of the NF-κB target genes, IL-8, MCP-1, and E-selectin was measured by quantitative RT-PCR and normalized to GADPH expression. d RA-V inhibited TNF-α-induced p65 phosphorylation, IκBα phosphorylation and IκBα degradation. HEK293T or HeLa cells were incubated with various concentrations of RA-V for 24 h and treated with 10 ng/mL TNF-α for 10 min. The cell lysates were prepared and subjected to western blot analysis with the indicated antibodies. e RA-V inhibited TNF-α-induced IL-8 production. […] The expression of IL-6 was measured. h RA-V inhibited LPS-induced p65 phosphorylation, IκBα phosphorylation. […] The protein expression was measured. i RA-V inhibited LPS-induced IL-6 production. […] The expression of IL-6 was measured. […]

Experiment [2] has as its system TAK1–TAB2 interaction. The experiment in a line: Co-immunoprecipitation of TAK1 and TAB2. In kind it is cell-based. The following applies: HEK293T or RAW264.7; 800 nM RA-V 6 h. Here is the method:
(§1) Fig. 4 RA-V blocks the interaction between TAK1 and TAB2. a RA-V blocked the exogenous TAK1–TAB2 interaction. HEK293T cells were transfected with Flag-TAK1 and HA-TAB2 for 24 h and then incubated with various concentrations of RA-V for 6 h. […] HEK293T cells were transfected with Flag-TAK1 and HA-TRAF6 or HA-TAB1 for 24 h and then incubated with RA-V (800 nM) for 6 h. The cell lysates were immunoprecipitated with HA antibody, and immunoblots were performed with the indicated antibodies. d RA-V blocked the endogenous TAK1–TAB2 interaction. HEK293T (left) or RAW264.7 (right) cells were incubated with 800 nM RA-V for 6 h and stimulated with 10 ng/mL TNF-α for 2 h or 1 μg/mL LPS for 3 h, respectively. The cell lysates were immunoprecipitated with TAK1 antibody or control IgG and then immunoblotted with the indicated antibodies. Each experiment was repeated at least three times
(§2) The cell lysates were prepared using radioimmunoprecipitation (RIPA) buffer containing 50 mM Tris-HCl pH 7.4, 150 mM NaCl, 1 mM ethylenediaminetetraacetic acid, 1% Triton X-100, 0.5% deoxycholate, and 0.1% sodium dodecyl sulfate, to which protease inhibitors (Roche) were added. The lysates were incubated with the indicated antibodies before adding 20 μL of Protein A/G agarose for 2 h. After four washes with the same buffer, the immunoprecipitates were boiled in 2 × SDS loading buffer.

In experiment [3] the target is T2, TAK1–TAB2 interaction (Homo sapiens, UniProt O43318).
T2 construct: expressed in transfected cells; host or cells: HEK293T
T2 sequence (O43318 1-579 isoform O43318-2): T1 sequence (O43318 1-579 isoform O43318-2)
Description: Co-immunoprecipitation of TAK1 and TAB2. The following applies: HEK293T, Flag-TAK1 and HA-TAB2; RA-V 6 h. The format is cell-based. The protocol:
as §1, §2

The next experiment has as its system RAW264.7 cells. Description: LPS-induced NF-κB activation in RAW264.7 cells. Particulars: 1 μg/mL LPS 3 h, dose-dependent. The format is cell-based. The protocol:
Fig. 1 RA-V inhibits TNF-α- and LPS-induced activation of NF-κB. a Chemical structure of RA-V. b RA-V inhibited the NF-κB signaling pathway in a dose-dependent manner. HEK293T or HeLa cells were transfected with the 5 × κB-luciferase and pTK-Renilla reporters. Twenty-four hours after transfection, the cells were incubated with various concentrations of RA-V for 6 h, and then treated with 10 ng/mL TNF-α for 2 h before the luciferase activity assay and MTT assay. c RA-V reduced TNF-α-induced expression of NF-κB target genes. HEK293T or HeLa cells were treated with various concentrations of RA-V for 24 h and stimulated with 10 ng/mL TNF-α for 2 h. The expression of the NF-κB target genes, IL-8, MCP-1, and E-selectin was measured by quantitative RT-PCR and normalized to GADPH expression. d RA-V inhibited TNF-α-induced p65 phosphorylation, IκBα phosphorylation and IκBα degradation. HEK293T or HeLa cells were incubated with various concentrations of RA-V for 24 h and treated with 10 ng/mL TNF-α for 10 min. The cell lysates were prepared and subjected to western blot analysis with the indicated antibodies. e RA-V inhibited TNF-α-induced IL-8 production. […] The expression of IL-6 was measured. h RA-V inhibited LPS-induced p65 phosphorylation, IκBα phosphorylation. […] The protein expression was measured. i RA-V inhibited LPS-induced IL-6 production. […] The expression of IL-6 was measured.

As to RA-V, the “competition with the CB12–TAK1 interaction (pull-down)” value on TAK1 is reported as “competed away”. Besides, the “TNF-α-induced IκBα phosphorylation, IκBα degradation, and p65 phosphorylation” value in experiment [1] is listed as “dose-dependent inhibitory effects”. For the same substance, the “endogenous TNF-α- or LPS-induced TAK1–TAB2 interaction” value in the experiment on TAK1–TAB2 interaction [2] is “inhibited the interaction”. Besides, the “interaction between exogenously expressed TAK1 and TAB2” value at TAK1–TAB2 interaction [3] was “dose-dependently blocked”. Further, in the experiment with RAW264.7 cells, the “LPS-induced IL-6 production, IκBα phosphorylation and p65 phosphorylation” value is “inhibited”.

(Values after article PMC6006164, “Natural cyclopeptide RA-V inhibits the NF-κB signaling pathway by targeting TAK1” (Cell Death & Disease, 2018).)
